Source: US20170298055A1, “sGC STIMULATORS” (IRONWOOD PHARMACEUTICALS, INC., priority 2014, published 2017)

Molecular target: T1, soluble guanylate cyclase (sGC) (Homo sapiens, UniProt Q02108+Q02153)
T1 construct: endogenously expressing soluble guanylate cyclase (sGC); endogenous in cells; host or cells: HEK293
T1 sequence (Q02153 1-619): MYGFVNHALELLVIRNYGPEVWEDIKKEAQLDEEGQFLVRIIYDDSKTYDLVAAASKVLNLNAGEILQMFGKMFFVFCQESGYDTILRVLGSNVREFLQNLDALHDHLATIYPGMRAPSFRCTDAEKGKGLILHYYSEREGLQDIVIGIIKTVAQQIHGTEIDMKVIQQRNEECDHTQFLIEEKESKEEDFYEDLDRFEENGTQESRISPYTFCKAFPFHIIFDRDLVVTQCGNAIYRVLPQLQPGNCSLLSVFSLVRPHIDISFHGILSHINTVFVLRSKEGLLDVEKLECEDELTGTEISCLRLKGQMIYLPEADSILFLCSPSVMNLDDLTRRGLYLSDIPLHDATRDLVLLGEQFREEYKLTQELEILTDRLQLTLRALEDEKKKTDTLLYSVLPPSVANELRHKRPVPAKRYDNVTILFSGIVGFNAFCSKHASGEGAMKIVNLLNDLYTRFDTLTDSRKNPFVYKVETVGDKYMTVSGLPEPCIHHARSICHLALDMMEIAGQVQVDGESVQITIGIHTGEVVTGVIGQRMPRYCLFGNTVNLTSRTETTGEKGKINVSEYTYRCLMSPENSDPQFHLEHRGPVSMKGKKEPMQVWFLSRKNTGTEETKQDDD
T1 sequence (Q02108 1-690): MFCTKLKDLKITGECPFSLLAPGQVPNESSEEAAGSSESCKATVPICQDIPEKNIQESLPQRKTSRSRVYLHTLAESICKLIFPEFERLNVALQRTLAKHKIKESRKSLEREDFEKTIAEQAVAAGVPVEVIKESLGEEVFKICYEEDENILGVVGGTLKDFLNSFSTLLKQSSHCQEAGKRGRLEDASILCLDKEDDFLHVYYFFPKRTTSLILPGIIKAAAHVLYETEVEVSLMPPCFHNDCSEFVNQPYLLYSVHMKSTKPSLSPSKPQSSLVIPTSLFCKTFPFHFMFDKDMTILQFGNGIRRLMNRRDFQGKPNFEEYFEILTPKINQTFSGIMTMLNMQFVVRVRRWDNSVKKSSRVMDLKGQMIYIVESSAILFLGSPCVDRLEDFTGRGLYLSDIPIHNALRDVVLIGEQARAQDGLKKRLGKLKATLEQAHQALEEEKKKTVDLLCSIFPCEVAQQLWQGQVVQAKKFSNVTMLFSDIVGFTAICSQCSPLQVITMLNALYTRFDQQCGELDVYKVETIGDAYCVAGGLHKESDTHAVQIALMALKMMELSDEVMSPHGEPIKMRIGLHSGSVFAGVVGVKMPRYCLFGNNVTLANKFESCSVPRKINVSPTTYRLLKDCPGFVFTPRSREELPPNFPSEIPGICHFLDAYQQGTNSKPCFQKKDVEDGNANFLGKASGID
Test: sGC-HEK-cGMP assay, LC/MS detection, updated conditions with DETA-NONOate (Example 2B)
Type: cell-based
Conditions: read-out: sGC_HEK_LCMS EC50/IC50 Abs (Norm) (nM) Binned
Description: Human embryonic kidney cells (HEK293), endogenously expressing soluble guanylate cyclase (sGC), were used to evaluate the activity of test compounds. Compounds stimulating the sGC enzyme should cause an increase in the intracellular concentration of cGMP. HEK 293 cells were seeded in Dulbecco's Modification of Eagle's Medium supplemented with fetal bovine serum (10% final) and penicillin (100 U/mL)/streptomycin (100 μg/mL) in a 50 μL volume at a density of 1.5×10^4 cells/well in a poly-D-lysine coated 384 well flat bottom plate. Cells were incubated overnight at 37° C. in a humidified chamber with 5% CO2. Medium was aspirated and cells were washed with 1× Hank's Buffered Saline Salt Solution (50 μL). Cells were then incubated for 15 minutes at 37° C. with 50 μL of a 0.5 mM 3-isobutyl-1-methylxanthine (IBMX) solution. Test article and Diethylenetriamine NONOate (DETA-NONOate) solutions (x μM concentration for test article solution and 10 μM concentration for DETA-NONOate solution; wherein x is one of the following concentrations);
were then added to the assay mixture and the resulting mixture incubated at 37° C. for 20 minutes. […]
cGMP concentrations were determined from each sample using the LCMS conditions below (Table 2B) and calculated standard curve. […]

EC50	Compound
100 to 1000 nM	OCCOc1nc(-c2cc(-c3ccon3)n(Cc3ccccc3F)n2)ncc1F [Compound I-1]
> 1000 nM	CN(C)CCOc1nc(-c2cc(-c3ccon3)n(Cc3ccccc3F)n2)ncc1F [Compound I-2]
